# Data reported in DBAASP.
# What was measured:
# Test in all cases: ≥ marks a high value that may be exact or a test limit, other limits are often not marked, values filed in µg/mL are converted to µM
# Bacillus subtilis 168 = system: Bacillus subtilis 168
# [1] = system: Candida albicans F7-39/IDE99
# Escherichia coli B = system: Escherichia coli B
# Pseudomonas aeruginosa = system: Pseudomonas aeruginosa
# Staphylococcus aureus = system: Staphylococcus aureus
# [2] = system: Candida albicans NCPF 1467
# [3] = system: Staphylococcus aureus NCTC 10788
# [4] = system: Escherichia coli NCTC 10418
# Bacillus subtilis = system: Bacillus subtilis
# Escherichia coli JW0013 = system: Escherichia coli JW0013
smiles,measurement,setting,value
CSCC[C@H](NC(=O)CNC(=O)[C@H](Cc1ccccc1)NC(=O)[C@H](C)N)C(=O)N[C@@H](C)C(=O)N[C@@H](CC(C)C)C(=O)N[C@@H](CCCCN)C(=O)N[C@@H](CC(C)C)C(=O)N[C@@H](CC(C)C)C(=O)N[C@@H](CCCCN)C(=O)N[C@@H](CCCCN)C(=O)N[C@H](C(=O)N[C@@H](CC(C)C)C(N)=O)C(C)C [AFGMALKLLKKVL],MIC,Bacillus subtilis 168,1.3 µM
same,MIC,[1],10 µM
same,MIC,Escherichia coli B,4.7 µM
same,MIC,Pseudomonas aeruginosa,38.3 µM
same,MIC,Staphylococcus aureus,4.7 µM
CC[C@H](C)[C@H](NC(=O)[C@H](C)NC(=O)CNC(=O)[C@H](Cc1ccccc1)NC(=O)[C@@H](N)Cc1ccccc1)C(=O)N[C@@H](C)C(=O)N[C@@H](C)C(=O)N[C@@H](C)C(=O)N[C@@H](CC(C)C)C(=O)N1CCC[C@H]1C(=O)N[C@@H](Cc1cnc[nH]1)C(=O)N[C@H](C(=O)N[C@H](C(=O)N[C@@H](CO)C(=O)N[C@@H](C)C(=O)N[C@H](C(=O)N[C@@H](CCCCN)C(=O)N[C@@H](CC(N)=O)C(=O)N[C@@H](C)C(=O)N[C@@H](CC(C)C)C(=O)O)[C@@H](C)CC)[C@@H](C)CC)C(C)C [FFGAIAAALPHVISAIKNAL],MIC,[2],≥ 120 µM
same,MIC,[3],16 µM
CC[C@H](C)[C@H](NC(=O)[C@H](CC(C)C)NC(=O)[C@H](CO)NC(=O)[C@@H](NC(=O)[C@H](CC(C)C)NC(=O)[C@H](C)NC(=O)[C@@H]1CCCN1C(=O)[C@@H](NC(=O)[C@H](CC(C)C)NC(=O)[C@H](Cc1ccccc1)NC(=O)[C@@H]1CCCN1C(=O)[C@H](CC(C)C)NC(=O)[C@@H](N)Cc1ccccc1)[C@@H](C)CC)[C@@H](C)O)C(=O)N[C@@H](CO)C(=O)N[C@@H](CO)C(=O)N[C@@H](CC(C)C)C(N)=O [FLPFLIPALTSLISSL],MIC,[2],≥ 150 µM
same,MIC,[3],≥ 50 µM
CC[C@H](C)[C@H](NC(=O)[C@H](CO)NC(=O)CNC(=O)CNC(=O)[C@@H](NC(=O)[C@H](CC(C)C)NC(=O)[C@H](CO)NC(=O)[C@@H]1CCCN1C(=O)[C@@H](NC(=O)[C@H](CC(C)C)NC(=O)[C@H](CO)NC(=O)[C@H](CC(C)C)NC(=O)[C@@H](N)Cc1ccccc1)[C@@H](C)CC)C(C)C)C(=O)N[C@@H](CO)C(=O)N[C@@H](C)C(=O)N[C@@H](Cc1ccccc1)C(=O)N[C@@H](CCCCN)C(=O)O [FLSLIPSLVGGSISAFK],MIC,[2],≥ 160 µM
same,MIC,[4],≥ 160 µM
same,MIC,[3],≥ 120 µM
CC[C@H](C)[C@H](NC(=O)[C@H](C)NC(=O)[C@H](C)NC(=O)[C@H](CC(C)C)NC(=O)[C@@H](NC(=O)[C@H](CCCCN)NC(=O)[C@H](CCCNC(=N)N)NC(=O)[C@@H]1CCCN1C(=O)[C@H](CC(C)C)NC(=O)CN)[C@@H](C)CC)C(=O)N[C@@H](C)C(=O)N[C@@H](CCCCN)C(=O)N[C@@H](CCCCN)C(=O)N[C@@H](CCCCN)C(=O)NCC(=O)N[C@@H](CCCCN)C(=O)N[C@H]1CSSC[C@@H](C(=O)O)NC(=O)[C@H](CCCCN)NC(=O)[C@H](C)NC(=O)[C@H](C(C)C)NC(=O)[C@H](CC(C)C)NC(=O)[C@H](CCCCN)NC(=O)[C@H](CC(C)C)NC(=O)[C@@H]2CCCN2C(=O)CNC(=O)[C@H](CCCCN)NC1=O [GLPRKILAAIAKKKGKCKGPLKLVAKC],MIC,Bacillus subtilis,4.2 µM
same,MIC,[1],≥ 50 µM
same,MIC,Escherichia coli B,≥ 100 µM
same,MIC,Pseudomonas aeruginosa,> 100 µM
same,MIC,Staphylococcus aureus,> 100 µM
CC[C@H](C)[C@H](NC(=O)[C@H](CCCN=C(N)N)NC(=O)[C@H](CCCN=C(N)N)NC(=O)[C@@H]1CCCN1C(=O)[C@@H]1CCCN1C(=O)[C@H](CCCN=C(N)N)NC(=O)[C@H](CCCN=C(N)N)NC(=O)[C@H](CCCN=C(N)N)NC(=O)[C@@H]1CCCN1C(=O)[C@H](CC(C)C)NC(=O)[C@H](CCCN=C(N)N)NC(=O)[C@@H]1CCCN1C(=O)[C@H](CCCCN)NC(=O)[C@H](CCCCN)NC(=O)[C@H](CC(=O)O)NC(=O)[C@@H](N)C(C)C)C(=O)N[C@@H](Cc1ccc(O)cc1)C(=O)N[C@@H](CC(N)=O)C(=O)N[C@@H](CCCN=C(N)N)C(N)=O [VDKKPRLPRRRPPRRIYNR],MIC,Escherichia coli JW0013,0.687 µM
CC[C@H](C)[C@H](NC(=O)[C@H](CCCN=C(N)N)NC(=O)[C@H](CCCN=C(N)N)NC(=O)[C@@H]1CCCN1C(=O)[C@@H]1CCCN1C(=O)[C@H](CCCN=C(N)N)NC(=O)[C@H](CCCN=C(N)N)NC(=O)[C@H](CCCN=C(N)N)NC(=O)[C@@H]1CCCN1C(=O)[C@H](CCCCN)NC(=O)[C@H](Cc1ccc(O)cc1)NC(=O)[C@@H]1CCCN1C(=O)[C@H](CCCCN)NC(=O)[C@H](CCCCN)NC(=O)[C@H](CC(=O)O)NC(=O)[C@@H](N)C(C)C)C(=O)N[C@@H](Cc1ccc(O)cc1)C(=O)N[C@@H](CC(N)=O)C(=O)N[C@@H](CCCN=C(N)N)C(N)=O [VDKKPYKPRRRPPRRIYNR],MIC,Escherichia coli JW0013,0.481 µM
CC[C@H](C)[C@H](NC(=O)[C@H](CCCN=C(N)N)NC(=O)[C@H](CCCN=C(N)N)NC(=O)[C@@H]1CCCN1C(=O)[C@@H]1CCCN1C(=O)[C@H](CCCN=C(N)N)NC(=O)[C@H](CCCN=C(N)N)NC(=O)[C@H](CCCN=C(N)N)NC(=O)[C@@H]1CCCN1C(=O)[C@H](CC(C)C)NC(=O)[C@H](Cc1ccc(O)cc1)NC(=O)[C@H](Cc1cnc[nH]1)NC(=O)[C@H](CCCN=C(N)N)NC(=O)[C@H](CCCCN)NC(=O)[C@H](CC(=O)O)NC(=O)[C@@H](N)C(C)C)C(=O)N[C@@H](Cc1ccc(O)cc1)C(=O)N[C@@H](CC(N)=O)C(=O)N[C@@H](CCCN=C(N)N)C(N)=O [VDKRHYLPRRRPPRRIYNR],MIC,Escherichia coli JW0013,0.628 µM
CC[C@H](C)[C@H](NC(=O)[C@H](CCCN=C(N)N)NC(=O)[C@H](CCCN=C(N)N)NC(=O)[C@@H]1CCCN1C(=O)[C@@H]1CCCN1C(=O)[C@H](CCCN=C(N)N)NC(=O)[C@@H]1CCCN1C(=O)[C@H](CCCN=C(N)N)NC(=O)[C@@H]1CCCN1C(=O)[C@H](CCCCN)NC(=O)[C@H](CCCN=C(N)N)NC(=O)[C@@H]1CCCN1C(=O)[C@H](CCCN=C(N)N)NC(=O)[C@H](CCCCN)NC(=O)[C@H](CC(=O)O)NC(=O)[C@@H](N)C(C)C)C(=O)N[C@@H](Cc1ccc(O)cc1)C(=O)N[C@@H](CC(N)=O)C(=O)N[C@@H](CCCN=C(N)N)C(N)=O [VDKRPRKPRPRPPRRIYNR],MIC,Escherichia coli JW0013,1.34 µM
CC[C@H](C)[C@H](NC(=O)[C@H](CCCN=C(N)N)NC(=O)[C@H](CCCN=C(N)N)NC(=O)[C@@H]1CCCN1C(=O)[C@@H]1CCCN1C(=O)[C@H](CCCN=C(N)N)NC(=O)[C@H](CCCCN)NC(=O)[C@H](CCCN=C(N)N)NC(=O)[C@@H]1CCCN1C(=O)[C@H](CCCCN)NC(=O)[C@H](Cc1ccc(O)cc1)NC(=O)[C@@H]1CCCN1C(=O)[C@H](CCCN=C(N)N)NC(=O)[C@H](CCCCN)NC(=O)[C@H](CC(=O)O)NC(=O)[C@@H](N)C(C)C)C(=O)N[C@@H](Cc1ccc(O)cc1)C(=O)N[C@@H](CC(N)=O)C(=O)N[C@@H](CCCN=C(N)N)C(N)=O [VDKRPYKPRKRPPRRIYNR],MIC,Escherichia coli JW0013,1.24 µM
CC[C@H](C)[C@H](NC(=O)[C@H](CCCN=C(N)N)NC(=O)[C@H](CCCN=C(N)N)NC(=O)[C@@H]1CCCN1C(=O)[C@@H]1CCCN1C(=O)[C@H](CCCN=C(N)N)NC(=O)[C@@H]1CCCN1C(=O)[C@H](CCCN=C(N)N)NC(=O)[C@@H]1CCCN1C(=O)[C@H](CC(C)C)NC(=O)[C@H](Cc1ccc(O)cc1)NC(=O)[C@@H]1CCCN1C(=O)[C@@H]1CCCN1C(=O)[C@H](CCCCN)NC(=O)[C@H](Cc1ccccc1)NC(=O)[C@@H](N)C(C)C)C(=O)N[C@@H](Cc1ccc(O)cc1)C(=O)N[C@@H](CC(N)=O)C(=O)N[C@@H](CCCN=C(N)N)C(N)=O [VFKPPYLPRPRPPRRIYNR],MIC,Escherichia coli JW0013,1.98 µM
